Entries after “also recorded” stand apart in the source; their conditions may differ.
Tests used:
LOX IMVI = experiment: NCI-60 one-dose screen; format: cell-based; details: Homo sapiens, Melanoma panel, single dose 10^−5 M, read-out: Growth inhibition %
CCD-966SK = experiment: MTT cell proliferation assay, CCD-966SK; details: CCD966SK skin fibroblast, 72 h MTT; for IC50: read-out: IC50 μM
Experimental: In the MTT assay, 96-well culture plates were used. A total of 7 × 10^4 cells per well were seeded, and test materials were added to the cells at various concentrations [47, 48]. Human cancer and non-cancer cell lines were purchased commercially from the American Type Culture Collection (ATCC). After 72 h, the cytotoxicity of the compounds and paclitaxel (as a positive control group) was detected using the MTT method (thiazolyl blue tetrazolium bromide, Sigma-M2128). Absorbance values at 570 and 620 nm (OD = OD570–OD620) were measured using an ELISA reader (Anthos Labtec Instruments, Salzburg, Austria).

HCT-116 cells [1] = experiment: Annexin-V/PI apoptosis assay; format: cell-based, human; details: 10 µM, 24 h
Experimental: For the same set of compounds, the apoptosis-inducing effects in HCT-116 cells were assessed using Annexin-V/PI double staining at 10 µM (Figure 3).
The number of apoptotic/necrotic cells was analyzed using flow cytometry following the manufacturer’s protocol. Markers were assessed using a FACS-Caliburflow cytometer (Beckman Coulter, Taipei, Taiwan) and analyzed using WinMDI 2.8 software.
(§1) Figure 3 Apoptosis induction and cell cycle effects of compounds in HCT-116 cells. (A) The apoptotic population of HCT-116 cells was analyzed using flow cytometry after treatment with 10 µM of the test compound for 24 h followed by Annexin V/propidium iodide (PI) staining. (B) After treatment with compound concentrations of 10 µM for 24 h, cells were fixed, stained with propidium iodide (PI), and analyzed for cell cycle distribution. Results are expressed as the means ± SD from three independent experiments (* p < 0.05 and ** p < 0.01 *** p < 0.001, control versus compound).

human DNA Topo II = biological target: T1, human DNA Topo II (Homo sapiens, UniProt P11388); experiment: Topo II-mediated relaxation of supercoiled pHOT1 plasmid DNA; format: biochemical; details: for DNA band pattern in Topo II relaxation assay: at 1 and 5 µM doses, similar to doxorubicin
T1 construct: purchased Topogen, Columbus, OH, USA
T1 sequence (P11388 whole entry): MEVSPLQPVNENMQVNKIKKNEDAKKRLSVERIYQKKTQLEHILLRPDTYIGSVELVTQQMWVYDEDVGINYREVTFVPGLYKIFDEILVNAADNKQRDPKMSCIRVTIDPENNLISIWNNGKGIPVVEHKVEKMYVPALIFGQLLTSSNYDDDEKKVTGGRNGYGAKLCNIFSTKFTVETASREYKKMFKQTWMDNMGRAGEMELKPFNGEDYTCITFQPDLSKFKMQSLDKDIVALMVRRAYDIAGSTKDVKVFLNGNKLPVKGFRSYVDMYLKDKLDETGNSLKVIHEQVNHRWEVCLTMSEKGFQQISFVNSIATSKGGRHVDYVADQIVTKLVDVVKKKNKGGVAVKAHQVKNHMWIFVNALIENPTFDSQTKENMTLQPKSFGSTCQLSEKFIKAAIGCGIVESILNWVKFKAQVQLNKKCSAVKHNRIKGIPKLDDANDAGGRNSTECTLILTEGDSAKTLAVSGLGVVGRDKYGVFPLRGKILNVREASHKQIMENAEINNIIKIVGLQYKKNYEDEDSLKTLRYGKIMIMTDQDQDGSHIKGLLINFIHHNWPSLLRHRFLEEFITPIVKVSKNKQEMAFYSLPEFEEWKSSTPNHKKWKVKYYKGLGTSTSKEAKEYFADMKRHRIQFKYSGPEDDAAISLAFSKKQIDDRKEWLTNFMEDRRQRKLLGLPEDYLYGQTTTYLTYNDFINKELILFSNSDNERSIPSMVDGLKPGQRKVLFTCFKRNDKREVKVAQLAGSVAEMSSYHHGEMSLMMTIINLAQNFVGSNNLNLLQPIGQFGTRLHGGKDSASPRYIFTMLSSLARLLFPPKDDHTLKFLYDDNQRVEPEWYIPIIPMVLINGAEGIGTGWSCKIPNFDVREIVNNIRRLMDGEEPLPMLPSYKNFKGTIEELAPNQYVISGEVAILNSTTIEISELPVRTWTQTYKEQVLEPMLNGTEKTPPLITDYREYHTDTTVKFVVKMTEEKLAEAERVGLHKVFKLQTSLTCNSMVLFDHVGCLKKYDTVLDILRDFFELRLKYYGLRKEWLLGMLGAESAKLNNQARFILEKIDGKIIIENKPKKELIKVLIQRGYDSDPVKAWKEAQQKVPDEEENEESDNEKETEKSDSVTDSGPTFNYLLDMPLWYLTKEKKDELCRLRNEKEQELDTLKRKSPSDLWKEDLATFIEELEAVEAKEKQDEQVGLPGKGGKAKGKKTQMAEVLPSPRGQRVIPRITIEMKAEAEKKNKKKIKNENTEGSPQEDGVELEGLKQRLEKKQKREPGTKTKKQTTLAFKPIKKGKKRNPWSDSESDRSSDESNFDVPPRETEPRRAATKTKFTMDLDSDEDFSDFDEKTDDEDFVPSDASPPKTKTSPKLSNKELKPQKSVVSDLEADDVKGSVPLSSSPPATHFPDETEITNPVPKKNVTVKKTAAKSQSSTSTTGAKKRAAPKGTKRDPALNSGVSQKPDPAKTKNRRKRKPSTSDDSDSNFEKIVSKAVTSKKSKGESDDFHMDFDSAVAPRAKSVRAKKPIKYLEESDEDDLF
Experimental: Consequently, the effects of the synthesized compounds on Topo II activity were evaluated with a cell-free assay using a purified human DNA Topo II-protein-mediated relaxation of the negatively supercoiled pHOT1 plasmid DNA [40]. […] Two Topo II inhibitors (doxorubicin and etoposide) were used as positive controls.
The reaction was terminated by adding 2 μL of 10% SDS, followed by 2.5 μL of proteinase K (50 μg/mL) to digest the bound protein. The system was incubated at 37 °C for 15 min. The DNA product was finally analyzed using electrophoresis on a vertical 1.5% agarose gel at 2 volts/cm in 1 × TAE buffer and photographed using the Eagle Eye II system (Stratagene, La Jolla, CA, USA).
Figure 2 Effects of compounds on topoisomerase II activity. Effects on Topo II-mediated relaxation of supercoiled pHOT1 plasmid DNA in a cell-free system. Positive control: etoposide (10 µM); doxorubicin (5 µM) used as Topo II poison (induction of linear DNA); DNA relaxation: plasmid DNA + topo IIα + solvent control. Nick, nicked DNA; Sc, supercoiled DNA; Lin, linear DNA.

HCT-116 cells [2] = experiment: Cell cycle analysis (PI, flow cytometry); format: cell-based, human; details: 10 µM, 24 h, PI staining
Experimental: To analyze cell cycle changes, cells permeated at 1 × 10^6 × cells/mL were trypsinized and diluted and then fixed in 70% ethanol at 4 °C. Cell cycle arrest in HCT-116 cells following compound exposure was accomplished using propidium iodide (Sigma-Aldrich, St. Louis, MI, USA). The markers were then assessed using a FACS-Caliburflow cytometer (Beckman Coulter, Taipei, Taiwan) and analyzed using WinMDI software. […]
as §1

Row | SMILES | inhibition at 10 µM (LOX IMVI) [%] | % Inhibition at 10 µM (CCD-966SK) [%] | induction of apoptosis (HCT-116 cells [1]) | DNA band pattern in Topo II relaxation assay (human DNA Topo II) | effect on cell cycle (HCT-116 cells [2]) | IC50 (CCD-966SK) [µM] | concentration at which Topo II inhibition (increase of supercoiled DNA) is shown (human DNA Topo II; cell-free relaxation assay, gel) [µM]
1 | Fc1ccc(CNc2c3ccccc3nc3ccccc23)cc1F [Compound 22, Acridin-9-yl-(3,4-difluorobenzyl)-amine] | 87.5 | 37.49 ± 7.38 | less than 20% | larger base pair band than nicked DNA | cell cycle arrest in the G2/M phase |  | 
2 | c1csc(-c2ccc(CNc3c4ccccc4nc4ccccc34)cc2)c1 [Compound 24, Acridin-9-yl-(4-thiophen-2-yl-benzyl)-amine] | 191 | 47.41 ± 2.48 | 20%–50% | larger base pair band than nicked DNA | arrested the cell cycle in the S phase |  | 
3 | COc1ccc2nc3ccccc3c(NCc3ccccc3)c2c1 [Compound 25, Benzyl-(2-methoxyacridin-9-yl)-amine] | 131 | 44.14 ± 3.80 | 20%–50% | larger base pair band than nicked DNA | cell cycle arrest in the G2/M phase; also recorded: increased the number of cells in the S phase and G2/M phase |  | 
4 | COc1ccc2nc3ccccc3c(NCc3ccc(F)cc3)c2c1 [Compound 28, (4-Fluorobenzyl)-(2-methoxyacridin-9-yl)-amine] | 167 | 60.66 ± 2.63 | less than 20% |  | increased the number of cells in the S phase and G2/M phase | 4.67 ± 0.07 | 1
5 | Cc1ccc2nc3ccccc3c(NCc3ccccc3)c2c1 [Compound 30, Benzyl-(2-methylacridin-9-yl)-amine] | 90.9 | 47.93 ± 1.06 | less than 20% | larger base pair band than nicked DNA | cell cycle arrest in the G2/M phase |  | 
6 | Cc1ccc2nc3ccccc3c(NCc3ccc(Cl)cc3)c2c1 [Compound 31, (4-Chlorobenzyl)-(2-methyl-acridin-9-yl)-amine] | 157 | 60.02 ± 3.07 | 20%–50% | larger base pair band than nicked DNA | arrested the cell cycle in the S phase | 4.96 ± 0.62 | 

Reference: paper PMC9866191, “Novel 9-Benzylaminoacridine Derivatives as Dual Inhibitors of Phosphodiesterase 5 and Topoisomerase II for the Treatment of Colon Cancer” (Molecules, 2023)
